Results as given in patent US12590118B2, “Salt and crystal form of steroid derivative regulator” (Shanghai Hansoh Biomedical Co., Ltd., priority 2019, dated 2026).

Each compound was assayed on ICR mice (assay: Forced swimming model in mice). Conditions: dose 10 mpk p.o., floating time/240 s.
Type: in vivo
Experimental: The antidepressant effect of the compound was evaluated by the forced swimming model in mice.
Compounds of Examples 1 to 3, Example 9, Example 40, Example 41, Examples 48 to 52, Example 90 and Example 98 of the present invention, prepared by the applicant.
Male ICR mice (25-35 g) were adapted in the experiment environment for 3 days before the forced swimming test.
According to the experiment design, the mice were randomly grouped on the day before the experiment according to body weight, with 12 mice in each group. Before the test, the compounds of each example were administered intragastrically according to the Tmax thereof in the brain in mice pharmacokinetic experiment.
Respectively: • 1) Model group (0.5% CMC-Na-1% Tween 80 solution, p.o., 10 mL/kg); • 2) Compounds of Examples 1 to 3, Example 40, Example 41, Examples 48 to 51, Example 90 and Example 98 (10 mg/kg, p.o., 10 mL/kg); Example 9 and Example 52 (5 mg/kg, p.o., 5 mL/kg).
When being administered, the compounds of each example were suspended in 0.5% CMC-Na+1% Tween 80 solution to the desired concentration.
0.5-1 hour after administration, ICR mice were placed in a forced swimming device (transparent glass drum (water depth 18 cm, water temperature 25-26° C.), one mouse per tank) and forced to swim for 6 minutes. The forced swimming device recorded the floating time of the ICR mice during the entire 6 minutes, and the data of the latter four minutes were used for data analysis. The mice were taken out immediately after the swimming experiment, wiped dry and put back in their original cages.
Note: The criterion for determining the immobility time is that the mouse stops struggling in water and floats, and there are only slight limb movements to keep the head floating on the water.
3.4 Data Analysis Floating time percentage=100*floating time/240 s.

Compound	Mean (immobility, %) [%]
C[C@@]1(O)CC[C@H]2[C@H](CC[C@@H]3[C@@H]2CC[C@@]2(C)[C@H]3[C@H](C3CC3)C[C@@H]2C(=O)Cn2ccc(C#N)n2)C1 [Example 49, 1-(2-((3R,5R,8R,9R,10S,13S,14S,15S,17S)-15-Cyclopropyl-3-hydroxy-3,13-dimethylhexadecahydro-1H-cyclopenta[a]phenanthren-17-yl)-2-oxoethyl)-1H-pyrazole-3-carbonitrile]	35.74

Same assay, conditions: dose 10 mpk p.o., latter four minutes of 6 min swim

Compound	Mean (immobility, s) [s]
C[C@@]1(O)CC[C@H]2[C@H](CC[C@@H]3[C@@H]2CC[C@@]2(C)[C@H]3[C@H](C3CC3)C[C@@H]2C(=O)Cn2ccc(C#N)n2)C1 [Example 49, 1-(2-((3R,5R,8R,9R,10S,13S,14S,15S,17S)-15-Cyclopropyl-3-hydroxy-3,13-dimethylhexadecahydro-1H-cyclopenta[a]phenanthren-17-yl)-2-oxoethyl)-1H-pyrazole-3-carbonitrile]	85.77

Same assay, conditions: forced swimming, ICR mice

Compound	immobility time during the latter four minutes compared with that of the model group
C[C@@]1(O)CC[C@H]2[C@H](CC[C@@H]3[C@@H]2CC[C@@]2(C)[C@H]3[C@H](C3CC3)C[C@@H]2C(=O)Cn2ccc(C#N)n2)C1 [Example 49, 1-(2-((3R,5R,8R,9R,10S,13S,14S,15S,17S)-15-Cyclopropyl-3-hydroxy-3,13-dimethylhexadecahydro-1H-cyclopenta[a]phenanthren-17-yl)-2-oxoethyl)-1H-pyrazole-3-carbonitrile]	very significantly different

The compounds below were run against GABA-A receptor (assay: 35S-TBPS binding assay (GABAA receptor binding ability assay)). Conditions: rat cerebral cortex cell membrane, 5 μM GABA, 2 nM 35S-TBPS; read-out: IC50 on inhibiting the TBPS binding activity, 35S-TBPS bindng assay.
Set-up: species or system Sprague-Dawley rat
Experimental: 1. The cerebral cortex of male Sprague-Dawley rat was isolated.
2. A pre-chilled 0.32 M sucrose solution (one tablet of protease inhibitor was added per 100 mL) was added to the cerebral cortex (the volume of sucrose solution was 10 times the volume of the cerebral cortex). The mixture was crushed with a 50 mL glass tissue homogenizer in batches and mixed well.
3. The mixture was centrifuged at 1,500 g, 4° C. for 10 minutes, and the supernatant was collected.
4. The mixture was centrifuged at 20,000 g, 4° C. for 30 minutes, and the supernatant was discarded.
5. The precipitate was resuspended with the pre-chilled phosphate buffer saline (PBS) (one tablet of protease inhibitor was added per 100 mL). An average of 4 mL of PBS was added per rat, and the mixture was mixed well with a glass tissue homogenizer.
6. The mixture was centrifuged at 10,000 g, 4° C. for 10 minutes, and the supernatant was discarded.
7. Steps 5 and 6 were repeated three times.
8. Finally, the precipitate was resuspended with 4 volumes of PBS. The resulting solution was dispensed, frozen in liquid nitrogen, and stored at −80° C.
9. The protein concentration was measured by the bicinchoninic acid (BCA) method.
1. 230 μL of PBS was added to each well of a well plate with 1.1 mL volume.
2. 60 μL of the cerebral cortex cell membrane (5 μg/μL) solution was added to each well, and the mixture was mixed well.
3. The test compound (3 μL per well) was added, and the plate was incubated at 25° C. for 5 minutes. The DMSO concentration was 1%. The initial compound concentration was […], and a
3-fold dilution in gradient was carried out to obtain a total of 8 gradients and 2 replicates. 1% DMSO was used as a negative control, and 10 μM P026-2 was used as a positive control.
4. GABA was added at a final concentration of 5 μM, and incubated at 25° C. for 5 minutes. 1 mM GABA solution was formulated, and 1.5 μL of the solution was added to each well.
5. 35S-TBPS was added at a final concentration of 2 nM. The concentration of isotope mother solution was 9.7 μM. After dilution with PBS for 100 times, 6 μL of the diluted isotope solution was added to each well.
6. The plate was incubated at 4° C. for 20 hours.
7. The FilterMate GF/C plate was pre-treated with 0.5% PEI, and incubated at 4° C. for 1 hour.
8. The FilterMate GF/C plate was washed with Universal Harvester twice, 50 mL PBS each time.
9. The reaction solution was transferred to the GF/C plate, and each well was washed 4 times with 900 μL of PBS.
10. The washed GF/C plate was placed at 55° C. and dried for 10 minutes.
11. 40 μL of scintillation solution was added to each well, and the CPM value was read with TopCount.
In the experiment, the CPM (counts per minute) value was read with TopCount. According to the readings of the High control (DMSO) and the Low control (10 μM of the positive compound) experimental groups, the % inhibition was calculated based on the following formula: % Inhibition=100×(CPMHigh control−CPMsample)/(CPMHigh control−CPMLow control)
The IC50 of the compound was calculated according to the following 4-parameter nonlinear logic formula: Y=Bottom+(Top−Bottom)/(1+10^((Log IC50−X)*HillSlope)),
wherein: • X represents the log of compound concentration, • Y represents the % Inhibition.
The effect of the compound of the present invention on the TBPS binding activity was determined by the above test, and the measured IC50 values are shown in Table 5.

Compound	IC50 [nM]
C[C@@H]1C[C@H](C(=O)Cn2cc(Cl)cn2)[C@@]2(C)CC[C@H]3[C@@H](CC[C@@H]4C[C@](C)(O)CC[C@@H]43)[C@H]12 [Example 68, 2-(4-Chloro-1H-pyrazol-1-yl)-1-((3R,5R,8R,9R,10S,13S,14S,15R,17S)-3-hydroxy-3,13,15-trimethylhexadecahydro-1H-cyclopenta[a]phenanthren-17-yl)ethan-1-one]	9.6
Cc1nnnn1CC(=O)[C@H]1[C@H]2C[C@H]2[C@H]2[C@@H]3CC[C@@H]4C[C@](C)(O)CC[C@@H]4[C@H]3CC[C@@]21C [Example 71, 1-((2R,4aS,4bR,6aS,7S,7aS,8aR,8bR,8cR,10aR)-2-Hydroxy-2,6a-dimethyloctadecahydrocyclopropa[4,5]cyclopenta[1,2-a]phenanthren-7-yl)-2-(5-methyl-1H-tetrazol-1-yl)ethan-1-one]	11.4
C[C@@]1(O)CC[C@H]2[C@H](CC[C@@H]3[C@@H]2CC[C@@]2(C)[C@H]3[C@@H]3C[C@@H]3[C@@H]2C(=O)Cn2cc([N+](=O)[O-])cn2)C1 [Example 73, 1-((2R,4aS,4bR,6aS,7S,7aS,8aR,8bR,8cR,10aR)-2-Hydroxy-2,6a-dimethyloctadecahydrocyclopropa[4,5]cyclopenta[1,2-a]phenanthren-7-yl)-2-(4-nitro-1H-pyrazol-1-yl)ethan-1-one]	10.2
C[C@@]1(O)CC[C@H]2[C@H](CC[C@@H]3[C@@H]2CC[C@@]2(C)[C@H]3[C@@H]3C[C@@H]3[C@@H]2C(=O)Cn2nc(C#N)cc2C#N)C1 [Example 84, 1-(2-((2R,4aS,4bR,6aS,7S,7aS,8aR,8bR,8cR,10aR)-2-Hydroxy-2,6a-dimethyloctadecahydrocyclopropa[4,5]cyclopenta[1,2-a]phenanthren-7-yl)-2-oxoethyl)-1H-pyrazole-3,5-dicarbonitrile]	6.1
C[C@@]1(O)CC[C@H]2[C@H](CC[C@@H]3[C@@H]2CC[C@@]2(C)[C@H]3[C@@H]3C[C@@H]3[C@@H]2C(=O)Cn2cc(-c3ncco3)cn2)C1 [Example 85, 1-((2R,4aS,4bR,6aS,7S,7aS,8aR,8bR,8cR,10aR)-2-Hydroxy-2,6a-dimethyloctadecahydrocyclopropa[4,5]cyclopenta[1,2-a]phenanthren-7-yl)-2-(4-(oxazol-2-yl)-1H-pyrazol-1-yl)ethan-1-one]	15.8
CC[C@@H]1C[C@H](C(=O)Cn2ccc(C(F)(F)F)n2)[C@@]2(C)CC[C@H]3[C@@H](CC[C@@H]4C[C@](C)(O)CC[C@@H]43)[C@H]12 [Example 91, 1-((3R,5R,8R,9R,10S,13S,14S,15R,17S)-15-Ethyl-3-hydroxy-3,13-dimethylhexadecahydro-1H-cyclopenta[a]phenanthren-17-yl)-2-(3-(trifluoromethyl)-1H-pyrazol-1-yl)ethan-1-one]	25.2
CC[C@@H]1C[C@H](C(=O)Cn2nnc(C)n2)[C@@]2(C)CC[C@H]3[C@@H](CC[C@@H]4C[C@](C)(O)CC[C@@H]43)[C@H]12 [Example 92, 1-((3R,5R,8R,9R,10S,13S,14S,15R,17S)-15-Ethyl-3-hydroxy-3,13-dimethylhexadecahydro-1H-cyclopenta[a]phenanthren-17-yl)-2-(5-methyl-2H-tetrazol-2-yl)ethan-1-one]	27
CC[C@@H]1C[C@H](C(=O)Cn2nccn2)[C@@]2(C)CC[C@H]3[C@@H](CC[C@@H]4C[C@](C)(O)CC[C@@H]43)[C@H]12 [Example 94, 1-((3R,5R,8R,9R,10S,13S,14S,15R,17S)-15-Ethyl-3-hydroxy-3,13-dimethylhexadecahydro-1H-cyclopenta[a]phenanthren-17-yl)-2-(2H-1,2,3-triazol-2-yl)ethan-1-one]	23.9
CC[C@@H]1C[C@H](C(=O)Cn2nc(C#N)cc2C#N)[C@@]2(C)CC[C@H]3[C@@H](CC[C@@H]4C[C@](C)(O)CC[C@@H]43)[C@H]12 [Example 95, 1-(2-((3R,5R,8R,9R,10S,13S,14S,15R,17S)-15-Ethyl-3-hydroxy-3,13-dimethylhexadecahydro-1H-cyclopenta[a]phenanthren-17-yl)-2-oxoethyl)-1H-pyrazole-3,5-dicarbonitrile]	16.2
C[C@@]1(O)CC[C@H]2[C@H](CC[C@@H]3[C@@H]2CC[C@@]2(C)[C@H]3[C@H](C3CC3)C[C@@H]2C(=O)Cn2ccc(C(F)(F)F)n2)C1 [Example 97, 1-((3R,5R,8R,9R,10S,13S,14S,15S,17S)-15-Cyclopropyl-3-hydroxy-3,13-dimethylhexadecahydro-1H-cyclopenta[a]phenanthren-17-yl)-2-(3-(trifluoromethyl)-1H-pyrazol-1-yl)ethan-1-one]	18.6
C[C@@]1(O)CC[C@H]2[C@H](CC[C@@H]3[C@@H]2CC[C@@]2(C)[C@H]3[C@H](C3CC3)C[C@@H]2C(=O)Cn2cc(C#N)c(Cl)n2)C1 [Example 99, 3-Chloro-1-(2-((3R,5R,8R,9R,10S,13S,14S,15S,17S)-15-cyclopropyl-3-hydroxy-3,13-dimethylhexadecahydro-1H-cyclopenta[a]phenanthren-17-yl)-2-oxoethyl)-1H-pyrazole-4-carbonitrile]	24.4
CC[C@@H]1C[C@H](C(=O)Cn2ncnn2)[C@@]2(C)CC[C@H]3[C@@H](CC[C@@H]4C[C@](C)(O)CC[C@@H]43)[C@H]12 [Example 100, 1-((3R,5R,8R,9R,10S,13S,14S,15R,17S)-15-Ethyl-3-hydroxy-3,13-dimethylhexadecahydro-1H-cyclopenta[a]phenanthren-17-yl)-2-(2H-tetrazol-2-yl)ethan-1-one]	25.6
